From PubChem BioAssay (NCI)
“And” between values parts separate entries of the source, which are not always exact repeats. Equal entries are not always repeated.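 Method: 48-hour compound exposure of cells in 96-well plates, five concentrations, linear interpolation of endpoints. Abbreviation: GI50, concentration required for 50% inhibition of growth. The concentration for full growth arrest is given as TGI.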 *1 amine or outer side, *2 acyl side, *3 side chain or, on linkers, in order; H or OH if unused. Where a SMILES comes first, the peptide text is derived from it. [ ]: non-standard residue; d: D form. The star is where a group is joined. X11 = C/C=C/CC(C)C(O)[C@H](N[*:1])C(=O)[*:2]; Leu(ol) = CC(C)C[C@H](N)CO; Iva = CC[C@](C)(N)C(=O)O; Octanoyl = CCCCCCCC(=O)*; Aib = CC(C)(N)C(=O)O

Test system: MDA-MB-468 breast
Experiment: NCI anticancer screen, dose series, 48 h

Row | Compound | GI50 | TGI
1 | C=CC(=O)Nc1cc(C)ccc1Nc1nc(Nc2cc(OC)ncc2C)ncc1C(F)(F)F | 1.86 µM | 6.06 µM
2 | CC(=O)c1c(C)[nH]c(-c2nc3ccc(N4CCN(C)CC4)cc3[nH]2)c1-c1ccc(N(C)C)cc1 | 0.2 µM | 2.89 µM
3 | C/C=C/CC(C)C(O)[C@H](NC(=O)[C@@H]1CCCN1C(=O)C(C)(C)NC(=O)CCCCCCC)C(=O)N[C@@](C)(CC)C(=O)N[C@@H](CCC(N)=O)C(=O)N[C@H](CCC(N)=O)C(=O)NC(C)(C)C(=O)NC(C)(C)C(=O)N[C@@H](CCC(N)=O)C(=O)N[C@H](CC(C)C)C(=O)N[C@H](CO)CC(C)C (stereo partly drawn) (Octanoyl-[Aib]P[X11][Iva]Q[dQ][Aib][Aib]Q[dL][Leu(ol)]) | 1.68 µM | 3.35 µM
4 | Cc1nc(-c2cn3c(n2)-c2ccc(-c4cnn(C(C)(C)C(N)=O)c4)cc2OCC3)n(C(C)C)n1 | 0.134 µM and 0.0499 µM | 1.55 µM and 0.822 µM
5 | O=C(NCCCO)c1cc(Cl)ccc1O | 1.19 µM | 7.18 µM
6 | CC(C)=CCC[C@](C)(O)[C@H]1CC[C@]2(C)[C@@H]1CC[C@@H]1[C@@]3(C)CC/C(=N/O)C(C)(C)[C@@H]3CC[C@]12C | 8.7 µM | 71.3 µM
7 | COc1ccc([C@@H]2C(=O)N(c3cc(OC)c(OC)c(OC)c3)[C@H]2c2ccc(OC)c(O)c2)cc1 | 0.0245 µM | 0.0671 µM
8 | Cc1nc2ccccc2c(/C=C/c2ccc(Cl)cc2)c1C(=O)/C=C/c1ccc(C(F)(F)F)cc1 | 1.3 µM | 2.93 µM
9 | CCN(CC)CC(O)CNc1c2ccc([N+](=O)[O-])cc2nc2cc(OC)c(OC)cc12 (stereo not given) | 0.172 µM | 0.475 µM
10 | COc1cccc(NC(=O)c2sc3nc(C)c(C(O)c4ccccc4)cc3c2N)c1 (stereo not given) | 0.27 µM | 30.2 µM
11 | c1ccc(CN2COc3c(ccc4c3OCN(Cc3ccccc3)C4)C2)cc1 | 0.796 µM | 5.2 µM
12 | Oc1ccc(-c2nc3ccccc3s2)cc1CN(Cc1ccccn1)Cc1ccccn1 | 2.48 µM | 17 µM
13 | [N-]=[N+]=NCCCCCC(=O)OC(C(=O)c1ccccc1)c1cccc(OCC(=O)NCCOCCOCCNC(=O)CCCC[C@@H]2SC[C@@H]3NC(=O)N[C@@H]32)c1 (stereo not given in full) | 27.5 µM | > 100 µM
14 | Nc1c(C(=O)Nc2cccc(F)c2)sc2nc3c(cc12)C(=O)CCC3 | 0.159 µM | > 100 µM
15 | O=C1C=CC(=Nc2cc(Br)c(O)c(Br)c2)C=C1 | 10.5 µM | 30.5 µM
16 | COCc1cc(C(=O)Nc2cc([C@H]3CC[C@@H](OC(=O)NC(C)C)C3)[nH]n2)n(C)n1 | 13.5 µM | 35 µM
17 | O=C(Nc1ccc(-n2ccc3c(NC(=O)c4ccccc4)ncnc32)cc1)Nc1ccc(Cl)c(Cl)c1 | 1.92 µM | 8.04 µM
18 | O=Nc1ccc(NO)c2ccccc12 | 13.9 µM | 44.4 µM
19 | CN(Cc1ccccc1)c1ccc(CO)c(Cl)c1 | 0.0795 µM | 0.248 µM
20 | CCN(CC)CCCNCc1cc(-c2ccccc2)nc2ccccc12 | 14.8 µM | 30.8 µM
21 | COC(=O)c1cc(O)c2cc3c(cc2c1-c1cc(OC)c(OC)c(OC)c1)OCO3 | 0.411 µM | 44.7 µM
22 | C=C1CCC2C3(C)COC(c4ccccc4)OC3CCC2(C)C1/C=C/C1=CCOC1=O (stereo not given) | 2.49 µM | 6.41 µM

Row | Compound | GI50 | TGI
23 | COc1cc(NCCCN=C(N)NC(N)=NC(C)C)c2ncccc2c1 | 0.112 µM | 0.501 µM
24 | C[n+]1c2cc(N)ccc2cc2ccc(N)cc21 | 342 nM [middle of 4 runs] | –
25 | O=C(CCC(=O)N1CCOCC1)OCCCCCCSc1ccc([N+](=O)[O-])c2nonc12 | 1.11 µM | 2.9 µM
26 | CC(C)=CCC/C(C)=C/CC/C(C)=C/CSc1ccccc1C(=O)O | 27.5 µM | > 90 µM
27 | COc1ccc2c(=O)cc(C(Cl)(Cl)Cl)oc2c1 | 0.383 µM | 14.4 µM
28 | C=CCN(C)S(=O)(=O)/N=C1\NC(=O)NC1=C(Cl)Cl | 0.578 µM | 15.6 µM
29 | CS(=O)(=O)CCc1cccc(C(=O)c2cnn(-c3ccc(F)cc3)c2N)c1 | > 25 µM | > 25 µM
30 | O=C(Cc1ccc(F)c(F)c1)Nc1cc(C2(C(F)(F)F)CC2)nn1Cc1ccccc1 | 2.67 µM | 9.41 µM
31 | COc1cc(-c2cc(O)c(-c3ccc4ccccc4n3)c(=O)[nH]2)cc(OC)c1OC | 3.38 µM | 26 µM
32 | O=C(O)C1(C(=O)O)CCC1.[NH2-].[NH2-].[Pt+2] | 43.7 µM | > 216 µM
33 | O=C(c1ccccc1)C(CN1CCCCC1)c1ccccc1 (stereo not given) | 0.536 µM | 1.9 µM
34 | Cc1cc(N2CCOCC2)nc(N[C@@H]2CCC[C@H](Nc3ccnc4cc(Cl)ccc34)C2)n1 | 1.76 µM | 4.04 µM
35 | O=C(COc1cc(O)c2c(=O)cc(-c3ccccc3)oc2c1)Nc1ccccc1C(F)(F)F | 4.95 µM | 35.8 µM
36 | NCCOCCOCCNc1nc(-c2ccccc2)nc(N2CCN(c3ccccn3)CC2)n1 | 7.23 µM | 20.6 µM
37 | Cc1nnc(-c2cccc(-c3ccc(C(=O)NCC4CC4)cc3)c2)o1 | > 25 µM | > 25 µM
38 | O=C(Nc1ccncc1)C(=O)c1cn(S(=O)(=O)c2ccc(Cl)cc2)c2ccccc12 | 0.746 µM | 9.11 µM
39 | O=c1cc(-c2cccc3c2Sc2ccccc2S3)oc(N2CCOCC2)c1 | 2.8 µM | 14.5 µM
40 | CC(=O)C1=C(O)C=C2Oc3c(C(=O)/C=C/c4c(Cl)cccc4Cl)c(O)c(C)c(O)c3[C@]2(C)C1=O | 1.19 µM | 4.89 µM
41 | CC(C)(C)c1cc(-n2c(-c3ccc(Cl)cc3)nc3cc(C(=O)Nc4ccc(Cl)cc4)ccc32)n[nH]1 | 4.88 µM | > 100 µM
42 | O=C(c1ccccc1)C1OC1c1ccc([N+](=O)[O-])cc1 (stereo not given) | 2.28 µM | 6.79 µM
43 | CNC(=O)c1ccccc1Nc1nc(Nc2cc(OC)c(OC)c(OC)c2)ncc1Br | 0.0782 µM | 0.625 µM
